One may read the IC50 as the concentration at which inhibition is half-maximal. A lower IC50 goes with greater potency in that assay.

The source of these data is ChEMBL document CHEMBL1151823, “5-Bromo-8-methoxy-1-methyl-beta-carboline, an alkaloid from the New Zealand marine bryozoan Pterocella vesiculosa” (J Nat Prod, 2009).

In assay [1] the test system is Trichophyton mentagrophytes. Description: Antimicrobial activity against Trichophyton mentagrophytes measured per disk. It is filed as functional.
The subject of the next assay is P388. As to the kind of experiment: Cytotoxicity against mouse P388 cells. It is filed as functional, cell-based.
The next assay relates to Candida albicans. As to the kind of experiment: Antimicrobial activity against Candida albicans measured per disk. The format is functional.
A further assay has as its system Bacillus subtilis. As to the kind of experiment: Antimicrobial activity against Bacillus subtilis measured per disk. It is filed as functional.

Values after ≈ are worked out from the molar mass of the structure shown.

Regarding `C=Cc1nccc2c1[nH]c1c(O)cccc12`, the MID in assay [1] was 0.45 µg/mL; in the assay with Candida albicans, 15 µg/mL; in the assay on Bacillus subtilis, 7.5 µg/mL. In the assay with P388, this compound gave a 50% inhibitory concentration (IC50) of 0.1 mg/L (≈ 0.476 µM).

Regarding `Cc1nccc2c1[nH]c1ccccc12` [HARMAN], the MID was determined as 3.7 µg/mL in assay [1], 1.9 µg/mL with Candida albicans and 7.5 µg/mL in the assay on Bacillus subtilis. Also, the IC50 with P388 was greater than 12.5 mg/L.

Take `C=Cc1nccc2c1[nH]c1c(OC)cccc12`: the MID in assay [1] turned out to be 0.45 µg/mL; with Candida albicans, 15 µg/mL; in the assay on Bacillus subtilis, 7.5 µg/mL. The compound also gave an IC50 in the assay with P388 of 0.1 mg/L (≈ 0.446 µM).

In the case of `C=Cc1[nH]ccc2c3ccccc3nc1-2`, the MID in assay [1] was found to be 0.1 µg/mL; in the assay on Candida albicans, 1.9 µg/mL; with Bacillus subtilis it was 1.9 µg/mL. Moreover, in the assay on P388, the concentration for half-maximal inhibition (IC50) stood at 0.1 mg/L (≈ 0.515 µM).

Take `C=Cc1nccc2c1[nH]c1c(OC(C)=O)cccc12`: 0.65 mg/L (≈ 2.58 µM) corresponded to half-maximal inhibition in the assay on P388 (IC50).

As to `CCc1nccc2c1[nH]c1ccccc12`, the MID in assay [1] was found to be 1.9 µg/mL; in the assay on Candida albicans, 1.9 µg/mL; in the assay on Bacillus subtilis it was 7.5 µg/mL. This compound also had a concentration for half-maximal inhibition (IC50) with P388 greater than 12.5 mg/L.

As to `COc1ccc(Br)c2c1[nH]c1c(C)nccc12`, the MID came to 7.5 µg/mL in assay [1], 7.5 µg/mL in the assay on Candida albicans and 2 µg/mL in the assay on Bacillus subtilis. Also, the IC50 in the assay on P388 came out at 5.09 mg/L (≈ 17.5 µM).

Take `CCc1nccc2c1[nH]c1c(OC)cccc12`: the figures for the MID (in assay [1]; with Candida albicans; in the assay with Bacillus subtilis) were 7.5 µg/mL, 7.5 µg/mL and greater than 60 µg/mL, respectively. In the assay on P388, this compound returned an IC50 greater than 12.5 mg/L.

As to `CCc1nccc2c1[nH]c1c(O)cccc12`, the MID (in assay [1]; with Candida albicans; with Bacillus subtilis) was 30 µg/mL throughout. Also, the IC50 in the assay with P388 was greater than 12.5 mg/L.
